Test results: patent US10251835B2, “Cranial delivery of pharmaceuticals” (GLIA, LLC, priority 2013, dated 2019)
“Also recorded” adds a separate entry of the source.

Columns and labels:
[1] = tested on: patient with corneal Herpes zoster; test: Treatment of herpetic keratitis; assay type: in vivo, human; conditions: for intraocular pressure: ganciclovir gel plus progesterone to forehead
Source text: A person suffered a first onset of active corneal Herpes zoster. They presented with classic Herpes Zoster symptoms including, left hemisphere unilateral skin lesions on forehead, bridge of nose area and down the nose not including the tip; left cornea dendrites, keratitis and edema; loss of functional vision, elevated intraocular pressure as high as 42 mm Hg, conjunctival irritation and redness and anesthetic cornea. There were also general body flu symptoms.
The patient was initially treated with ophthalmic prednisolone acetate 1% up to 5 times daily, ophthalmic antibiotics, non-prescription ophthalmic wetting agents, and lubrication with gels administered to the eye. Additional drug therapies included systemic oral valcyclovir as high as 2 g per day and medications to reduce intraocular pressure.
Despite the therapy, symptom flare-up was as frequent as 2 weeks to 1 month over the past 10 years. Although intraocular pressure returned to within the normal range, cataracts formed as a result of long term use of corticosteroids.
The cornea surface contour became increasingly distorted with prominent ridges. There was incursion of capillaries across the conjunctiva into the cornea, both superficially and deep. Deposition of phospholipids through a leaching process occluded the cornea with grey color deposits on about 50% of its surface.
Corneal thinning had progressed to near perforation levels which required preparation for corneal patch surgery.
At this point, 1% topical progesterone (approximately 1 mg of progesterone) was first administered as a method to keep the cornea from perforating and the tear film intact. The drug was applied to the forehead 4 times daily together with topical antibiotics and corticosteroids.
After stabilizing the cornea, antiviral treatment was begun with ganciclovir gel (0.15%; 0.15 mg of drug) applied five times daily to the forehead together with once daily progesterone (1%; 1 mg of drug) and a nightly drop of ophthalmic antibiotic. Intraocular pressure measured at the onset of ganciclovir treatment was 18 mm Hg.
The patient reported a decrease in eye strain as a result of an improvement in tear film. […] Over the next two weeks, inflammation was further reduced and visual acuity increased somewhat when the head was tilted back. During the first full month of treatment, the affected eye generally felt comfortable. There was a lack of inflammation, and some vision returned to the threshold of functionality. Intraocular pressure remained normal in the range of 16 mm Hg.
There was modest improvement in reading the eye chart, and corneal staining due to defects was minimized. Intraocular pressure remained normal in both eyes at about 16 mm Hg during this period. The phospholipid deposits further reduced in density and began to give the appearance of lesser areas of concentrations. Nearly functional vision could be achieved by positioning the head back and viewing through the central cornea. The residual clear area of the cornea became more so and less inflamed. Through the end of the second month, improvement to the cornea accelerated. The pupil was now clearly visible and more light was entering the eye.
The patient was examined regularly by an ophthalmologist, and after three and one half months of treatment. The intraocular pressure was normal at 12 mm Hg. […] Intraocular pressure has remained in the same range for more than one year.

[2] = tested on: subject with left-side trigeminal neuralgia and facial droop; test: Treatment of trigeminal neuralgia and facial palsy; assay type: in vivo, human; conditions: progesterone 1% (1 mg) four times daily to forehead followed by 0.15 g ganciclovir (0.15% formulation) up to five times daily
Method: A subject presented with left-side trigeminal neuralgia and left side facial droop of 10 years duration. Therapy was initiated by topically applying progesterone (1% by weight) equivalent to 1 mg four times daily to the patient's forehead. This was followed by application of 0.15 g ganciclovir (as a 0.15% by weight formulation) up to five times daily.

[3] = tested on: patient with cognitive impairment due to surgery; test: Treatment of surgically induced cognitive deficits, cranially delivered dronabinol; assay type: in vivo, human
Source text: The patient described in Example 1 suffered from a co-morbid condition of cognitive impairment due to surgery to remove a frontal lobe glioblastoma multiforma. The cognitive impairment continued for two years following the surgery at which time treatment with cranially delivered dronabinol was begun.

[4] = tested on: person with late stage Alzheimer disease; test: Treatment of symptoms associated with Alzheimer's disease; assay type: in vivo, human; conditions: approximately 2 mg dronabinol to forehead, then daily dosing
Method: A person diagnosed with late stage Alzheimer disease five years ago suffers from episodes of extreme agitation, aggressive behavior, and nocturnal restlessness and disorientation that is difficult for their caregiver to manage. Approximately 2 mg dronabinol was delivered cranially to their forehead.

[5] = tested on: person with CYMBALTA induced loss of appetite; conditions: 2 mg dronabinol to forehead daily with oral CYMBALTA; 2 week course
Method: The subject topically applied 2 mg of dronabinol to their forehead daily together with the oral CYMBALTA™.

[6] = tested on: patient unable to swallow with loss of appetite; test: Treatment of drug-induced anorexia and oropharyngeal dysphagia, dronabinol applied to forehead; assay type: in vivo, human
Method: A patient had been on dexamethasone therapy for 20 months following surgery, radiation, and chemotherapy. After tapering the dose of dexamethasone from 16 mg per day to 1.5 mg per day, the patient was unable to swallow and reported a loss of appetite. Dronabinol was administered to the patient's forehead once per day at 2.5 mg per dose. Improvement in swallowing and appetite were noted within 24 hours of the first administration.
After three weeks of continued dronabinol therapy, application was again stopped for 24 hours, resulting in the same loss of appetite and difficulty swallowing.
The effect of oral administration of dronabinol was tested after another two weeks as an alternative to the topical route of administration described above. […] Typical meals include steak, meatball sandwich and fruit drinks.
The patient had also ceased dexamethasone dosing very early on.

person = test: Rapid anti-anxiety treatment; assay type: in vivo, human; conditions: 1 mg midazolam to forehead
Method: A person applied 1 mg of midazolam to their forehead on three separate occasions. […] These effects lasted for 4 to 6 hours after application of the drug.

[7] = tested on: dogs with mucus discharge from the eyes; test: Treatment of dry eye in domestic animals; assay type: in vivo, dog; conditions: bulldog; tacrolimus directly in the eye
Source text: A puggle presented with mucus discharge from the eyes. […] The owner reported that the dog has this problem spring and fall, which indicates it is allergic seasonal rhinitis. The reported use took place in the fall.
A bulldog diagnosed with Sjogren's syndrome had mucus discharge from the eyes.

With `Nc1nc(O)c2ncn(COC(CO)CO)c2n1` [ganciclovir] the “inflammation, visual acuity and state of affected eye” value ([1]; ganciclovir gel 0.15% (0.15 mg) five times daily plus progesterone 1% (1 mg) once daily to forehead, nightly ophthalmic antibiotic, 1 week to 3.5 months) was “less inflammation and a slight improvement in visual acuity; also recorded: some functional vision was attained; also recorded: stable and normalizing”, the intraocular pressure ([1]; after three and one half months) was 12 mm Hg and the intraocular pressure ([1]; both eyes, examination period up to third month) was “about 16 mm Hg”. For the same compound, the intraocular pressure ([1]; first full month of treatment) was about 16 mm Hg and the “facial muscles contracted for 10 years” value [2] was “relaxation of facial muscles”.

`CCCCCc1cc(O)c2c(c1)OC(C)(C)[C@@H]1CCC(C)=C[C@@H]21` (relative stereo) [dronabinol, (6aR-trans)-6a,7,8,10a-tetrahydro-6,6,9-trimethyl-3-pentyl-6H-dibenzo[b,d]pyran-1-ol] was tested, and the “scar tissue around the area of surgery as detected by imaging” value [3] was “noticeable decrease in scar tissue”, the “cognitive function (noted by physicians)” value ([3]; begun two years after surgery) was “dramatic improvement in cognitive function” and the “agitation, aggressive behavior, nocturnal restlessness symptoms” value [4] was “improvement in their symptoms was observable within two hours; also recorded: less frequent nocturnal disturbances; also recorded: additional significantly noticeable improvement in their symptoms”. For the same compound, the “prevention of CYMBALTA induced loss of appetite” value [5] was “prevented the CYMBALTA™ induced loss of appetite”, the “appetite and swallowing after missing dronabinol therapy” value ([6]; after missing one day of dronabinol therapy) was “decrease in appetite and difficulty swallowing liquids” and the “dose requirement on continued treatment” value ([6]; after one year of cranial dosing with challenge stops and restarts) was “No increase in dose has been required; also recorded: daily dosing is necessary for continued effectiveness”. The “appetite and swallowing (patient report)” value ([6]; dronabinol 2.5 mg applied to forehead, four weeks, restarts and single rescue doses) was “healthy appetite and no problems swallowing; also recorded: normal appetite and swallowing after one day; also recorded: complete reversal of symptoms within about two hours; also recorded: rescued again by single dose applied cranially”, the “time to improvement in swallowing and appetite” value ([6]; dronabinol 2.5 mg per dose to forehead once per day, after first administration) was at most 24 h and the “swallowing and chewing under oral administration” value ([6]; oral 2.5 mg dronabinol instead of topical, within one day) was “difficulty swallowing and chewing”.

`Cc1ncc2n1-c1ccc(Cl)cc1C(c1ccccc1F)=NC2` [midazolam] was tested, and the duration of effects (person) was 4 to 6 h, the effect produced (person) was “mild sedation and anti-anxiety” and the time to response (person; three separate occasions) was at most 5 min.

`C=CC[C@@H]1/C=C(\C)C[C@H](C)C[C@H](OC)[C@H]2O[C@@](O)(C(=O)C(=O)N3CCCC[C@H]3C(=O)O[C@H](/C(C)=C/[C@@H]3CC[C@@H](O)[C@H](OC)C3)[C@H](C)[C@@H](O)CC1=O)[C@H](C)C[C@@H]2OC` [tacrolimus] was tested, and the “mucus discharge from the eyes” value [7] was “without completely stopping the discharge”.
